# Measurements published in patent US6645715B1, “Artificial cornea” (University of Ottawa, priority 1998, dated 2003).
# What was measured:
# reconstructed corneas [1] = experiment: Responses of reconstructed corneas to aqueous test chemicals (wound, corneal transparency); format: cell-based, human; conditions: 10% SDS, 0.01% benzalkonium chloride solution
# Experimental: Each cornea was exposed centrally to 100 μl of the test chemical for 10 min, after which the chemical was washed off with saline and the corneas were re-cultured for a further 3 days. The saline-treated cornea served as the control.
# reconstructed corneas [2] = experiment: Live-dead staining of reconstructed corneas after chemical exposure; format: cell-based, human; conditions: SDS; 0.01% benzalkonium chloride solution
# Source text: Live cells are green, while dying or dead cells are orange-red. […] C.
# [3] = tested on: corneal epithelial cell lines and primary epithelial cells; experiment: RT-PCR of mRNA expression in corneal epithelial cells after SDS exposure; format: cell-based, human
# Source text: Corneal epithelial cell lines were exposed to sodium dodecyl sulfate (SDS) to characterise the changes in mRNA expression of early response genes such as c-fos and c-jun, cytokines probably involved with corneal wound healing such as interleukins (IL-1a and IL-6), basic fibroblast growth factor (bFGF), vascular endothelial growth factor (VEGF) and epidermal growth factor (EGF), and matrix molecules that are elaborated during healing such as collagens types I, III and V. Reverse transcription-polymerase chain reaction (RT-PCR) was used to examine changes in expression of the above genes in corneal epithelial cell lines compared to primary cells, and in artificial corneas compared to human corneas from the eye bank after exposure to a detergent SDS. The cells were exposed to 0.02% SDS in M199 for 2 minutes. Corneas were treated with 5% SDS in M199. Controls were dosed with M199 only. RT-PCR was performed on RNA from cells and corneas obtained at different time points after injury. Semi-quantitative analyses were conducted by introducing the housekeeping gene, glyceraldehyde-3-phosphate dehydrogenase (GAPDH) as an internal control and by Southern analysis. PCR products were sequenced to confirm their identity. Baseline levels of the 10 mRNAs examined were established in control epithelial cells and corneas (n> or =6 for each time point). […] However, changes in MRNA expression for bFGF, VEGF, EGF and collagen III were non-significant.
# reconstructed corneas [4] = experiment: RT-PCR of gene expression in SDS-treated reconstructed corneas; format: cell-based, human; conditions: 5% SDS in M199; reconstructed whole corneas
# Experimental: Band intensities for the indicated genes were quantitated by a phosphoimager and were divided by the intensity of the corresponding GAPDH band. Corneas were treated with 5% SDS in medium for 1 or 3 minutes, then washed twice with medium. Total RNA was extracted at 1 hour after the SDS treatment, and RT-PCR was carried out for specific primers for various genes. Reverse transcription-polymerase chain reaction (RT-PCR) was used to examine changes in expression of the above genes in corneal epithelial cell lines compared to primary cells, and in artificial corneas compared to human corneas from the eye bank after exposure to a detergent SDS. The cells were exposed to 0.02% SDS in M199 for 2 minutes. Corneas were treated with 5% SDS in M199. Controls were dosed with M199 only. RT-PCR was performed on RNA from cells and corneas obtained at different time points after injury. Semi-quantitative analyses were conducted by introducing the housekeeping gene, glyceraldehyde-3-phosphate dehydrogenase (GAPDH) as an internal control and by Southern analysis. PCR products were sequenced to confirm their identity. […] However, these changes were more marked in the reconstructed whole corneas than in the epithelial monolayers.
# human eye bank corneas = experiment: RT-PCR of gene expression in human eye bank corneas after SDS exposure; format: cell-based; conditions: 5% SDS in M199
# Experimental: Reverse transcription-polymerase chain reaction (RT-PCR) was used to examine changes in expression of the above genes in corneal epithelial cell lines compared to primary cells, and in artificial corneas compared to human corneas from the eye bank after exposure to a detergent SDS. The cells were exposed to 0.02% SDS in M199 for 2 minutes. Corneas were treated with 5% SDS in M199. Controls were dosed with M199 only. RT-PCR was performed on RNA from cells and corneas obtained at different time points after injury. Semi-quantitative analyses were conducted by introducing the housekeeping gene, glyceraldehyde-3-phosphate dehydrogenase (GAPDH) as an internal control and by Southern analysis. PCR products were sequenced to confirm their identity.
# [5] = 0.02% SDS in M199 for 2 minutes, within 1 hour of injury, primary epithelial cells and cell lines
structure (smiles),measurement,setting,value
"CCCCCCCCCCCCOS(=O)(=O)[O-].[Na+] [SDS, sodium dodecyl sulfate]",wound / change of corneal transparency,"reconstructed corneas [1]; 100 μl centrally for 10 min, washed off with saline, re-cultured 3 days",caused wounds to the centre of the cornea
same,healing of the wound,"reconstructed corneas [1]; 100 μl for 10 min, re-cultured a further 3 days",still unhealed
same,"live-dead staining, epithelial cells",reconstructed corneas [2],mostly dead and dying cells
same,"live-dead staining, stromal cells",reconstructed corneas [2],orange-red dead or dying cells
same,penetration into the stromal compartment,reconstructed corneas [2],penetration of the detergent into the stroma
same,IL-1a mRNA expression,[3]; 0.02% SDS for 2 minutes,increased expression
same,IL-6 mRNA expression,[3]; 0.02% SDS for 2 minutes,increased expression
same,changes in mRNA expression for EGF,[3]; 0.02% SDS for 2 minutes,non-significant
same,changes in mRNA expression for VEGF,[3]; 0.02% SDS for 2 minutes,non-significant
same,changes in mRNA expression for bFGF,[3]; 0.02% SDS for 2 minutes,non-significant
same,changes in mRNA expression for collagen III,[3]; 0.02% SDS for 2 minutes,non-significant
same,collagen I mRNA expression,[3]; 0.02% SDS for 2 minutes,increased expression
same,collagen V mRNA expression,[3]; 0.02% SDS for 2 minutes,increased expression
same,"expression of c-fos, time course","[3]; 0.02% SDS for 2 minutes, 24 hours",returned to baseline levels by the end of 24 hours
same,"expression of c-jun, time course","[3]; 0.02% SDS for 2 minutes, until day 6",remained high until day 6 after injury
same,expression of c-fos,[3]; [5],significantly increased
same,expression of c-jun,[3]; [5],significantly increased
same,extent of changes in gene expression versus epithelial monolayers,reconstructed corneas [4],more marked
same,changes in gene expression,human eye bank corneas,responded to SDS exposure with changes in gene expression
